Data on 7 cell lines can be found in the supplement of paper PMC10307832.

Holding throughout (assay): relative viability (nuclei count vs DMSO), 5 days (fraction); higher = more cells survive
Compound in the experiment “ALW-II-49-7 + Crizotinib”: Cc1ccc(C(=O)Nc2cccc(C(F)(F)F)c2)cc1Nc1cncc(C(N)=O)c1 [ALW-II-49-7] + C[C@@H](Oc1cc(-c2cnn(C3CCNCC3)c2)cnc1N)c1c(Cl)ccc(F)c1Cl [Crizotinib] (partner 1 µM)
The gist of the method:
(§1)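 The day after seeding in 1536-well plates, lung cancer cell lines were treated by pin tool with a single drug, or with a fixed anchor-drug dose together with five library-drug doses (not always all listed) in √10 steps. After 5 days, a combined fix-and-stain solution (final 0.05% Triton X-100, 1% formaldehyde, 1 ug/ml Hoechst) was added. Nuclei counted on 4× images gave relative viability as treated counts over vehicle counts, reported as the median of duplicate plates.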

Compound in the experiment “Dasatinib + Luminespib”: Cc1nc(Nc2ncc(C(=O)Nc3c(C)cccc3Cl)s2)cc(N2CCN(CCO)CC2)n1 [Dasatinib] + CCNC(=O)c1noc(-c2cc(C(C)C)c(O)cc2O)c1-c1ccc(CN2CCOCC2)cc1 [Luminespib] (partner 0.01 µM)
The gist of the method: as §1

Compound in the experiment “Dasatinib + Alpelisib”: Cc1nc(Nc2ncc(C(=O)Nc3c(C)cccc3Cl)s2)cc(N2CCN(CCO)CC2)n1 [Dasatinib] + Cc1nc(NC(=O)N2CCC[C@H]2C(N)=O)sc1-c1ccnc(C(C)(C)C(F)(F)F)c1 [Alpelisib] (partner 2 µM)
In short, it runs like this:
as §1

Compound in the experiment “Dasatinib + Phenformin”: Cc1nc(Nc2ncc(C(=O)Nc3c(C)cccc3Cl)s2)cc(N2CCN(CCO)CC2)n1 [Dasatinib] + N=C(N)NC(=N)NCCc1ccccc1 [Phenformin] (partner 250 µM)
In short, it runs like this: as §1

Regarding NCI-H358, the relative viability amounted to 0.616 in the experiment with ALW-II-49-7 + Crizotinib (first compound 0.08 µM); 0.412 in the experiment with ALW-II-49-7 + Crizotinib (first compound 0.253 µM); 0.486 with ALW-II-49-7 + Crizotinib (first compound 0.8 µM); 0.435 in the experiment with ALW-II-49-7 + Crizotinib (first compound 2.53 µM); 0.539 with ALW-II-49-7 + Crizotinib (first compound 8 µM); 0.215 with Dasatinib + Luminespib (first compound 0.005 µM). Besides, the relative viability with Dasatinib + Luminespib (first compound 0.01581 µM) was determined as 0.169; with Dasatinib + Luminespib (first compound 0.05 µM), 0.253; with Dasatinib + Luminespib (first compound 0.1581 µM), 0.262; in the experiment with Dasatinib + Luminespib (first compound 0.5 µM) it was 0.136; with Dasatinib + Alpelisib (first compound 0.005 µM), 0.726; with Dasatinib + Alpelisib (first compound 0.01581 µM) it was 0.585. Moreover, the relative viability was 0.458 with Dasatinib + Alpelisib (first compound 0.05 µM); 0.24 with Dasatinib + Alpelisib (first compound 0.1581 µM); 0.204 with Dasatinib + Alpelisib (first compound 0.5 µM); 0.301 with Dasatinib + Phenformin (first compound 0.005 µM); 0.247 in the experiment with Dasatinib + Phenformin (first compound 0.01581 µM); 0.264 with Dasatinib + Phenformin (first compound 0.05 µM). For the same cell line, the relative viability with Dasatinib + Phenformin (first compound 0.1581 µM) is 0.156; with Dasatinib + Phenformin (first compound 0.5 µM), 0.157.

With NCI-H441, the relative viability with ALW-II-49-7 + Crizotinib (first compound 0.08 µM) is 0.772; in the experiment with ALW-II-49-7 + Crizotinib (first compound 0.253 µM), 0.714; with ALW-II-49-7 + Crizotinib (first compound 0.8 µM), 0.676; with ALW-II-49-7 + Crizotinib (first compound 2.53 µM) it was 0.598; in the experiment with ALW-II-49-7 + Crizotinib (first compound 8 µM), 0.625; in the experiment with Dasatinib + Luminespib (first compound 0.005 µM), 0.372. The relative viability in the experiment with Dasatinib + Luminespib (first compound 0.01581 µM) worked out at 0.307; in the experiment with Dasatinib + Luminespib (first compound 0.05 µM) it was 0.225; in the experiment with Dasatinib + Luminespib (first compound 0.1581 µM), 0.196; with Dasatinib + Luminespib (first compound 0.5 µM), 0.193; with Dasatinib + Alpelisib (first compound 0.005 µM), 0.878; in the experiment with Dasatinib + Alpelisib (first compound 0.01581 µM), 0.874. Moreover, the relative viability in the experiment with Dasatinib + Alpelisib (first compound 0.05 µM) stood at 0.574; with Dasatinib + Alpelisib (first compound 0.1581 µM), 0.355; with Dasatinib + Alpelisib (first compound 0.5 µM), 0.218; with Dasatinib + Phenformin (first compound 0.005 µM), 0.921; with Dasatinib + Phenformin (first compound 0.01581 µM), 0.912; with Dasatinib + Phenformin (first compound 0.05 µM), 0.862. Moreover, the relative viability came to 0.547 with Dasatinib + Phenformin (first compound 0.1581 µM) and 0.401 with Dasatinib + Phenformin (first compound 0.5 µM).

Turning to NCI-H460, the relative viability amounted to 1 in the experiment with ALW-II-49-7 + Crizotinib (first compound 0.08 µM); 0.877 in the experiment with ALW-II-49-7 + Crizotinib (first compound 0.253 µM); 0.802 in the experiment with ALW-II-49-7 + Crizotinib (first compound 0.8 µM); 1.01 with ALW-II-49-7 + Crizotinib (first compound 2.53 µM); 0.793 with ALW-II-49-7 + Crizotinib (first compound 8 µM); 0.0311 with Dasatinib + Luminespib (first compound 0.005 µM). In addition, the relative viability is 0.031 with Dasatinib + Luminespib (first compound 0.01581 µM); 0.0288 with Dasatinib + Luminespib (first compound 0.05 µM); 0.02 with Dasatinib + Luminespib (first compound 0.1581 µM); 0.0207 in the experiment with Dasatinib + Luminespib (first compound 0.5 µM); 0.286 with Dasatinib + Alpelisib (first compound 0.005 µM); 0.179 with Dasatinib + Alpelisib (first compound 0.01581 µM). In addition, the relative viability in the experiment with Dasatinib + Alpelisib (first compound 0.05 µM) came to 0.159; with Dasatinib + Alpelisib (first compound 0.1581 µM) it was 0.122; in the experiment with Dasatinib + Alpelisib (first compound 0.5 µM), 0.0551; in the experiment with Dasatinib + Phenformin (first compound 0.005 µM), 0.47; in the experiment with Dasatinib + Phenformin (first compound 0.01581 µM) it was 0.484; in the experiment with Dasatinib + Phenformin (first compound 0.05 µM), 0.443. The relative viability with Dasatinib + Phenformin (first compound 0.1581 µM) stood at 0.336; with Dasatinib + Phenformin (first compound 0.5 µM) it was 0.314.

In the case of NCI-H520, the relative viability stood at 0.751 with ALW-II-49-7 + Crizotinib (first compound 0.08 µM); 0.638 with ALW-II-49-7 + Crizotinib (first compound 0.253 µM); 0.682 with ALW-II-49-7 + Crizotinib (first compound 2.53 µM); 0.723 with ALW-II-49-7 + Crizotinib (first compound 8 µM); 0.184 in the experiment with Dasatinib + Luminespib (first compound 0.005 µM); 0.209 in the experiment with Dasatinib + Luminespib (first compound 0.01581 µM). For the same cell line, the relative viability with Dasatinib + Luminespib (first compound 0.05 µM) was found to be 0.221; in the experiment with Dasatinib + Luminespib (first compound 0.1581 µM), 0.194; in the experiment with Dasatinib + Luminespib (first compound 0.5 µM), 0.197; with Dasatinib + Alpelisib (first compound 0.005 µM), 0.539; with Dasatinib + Alpelisib (first compound 0.01581 µM), 0.456; in the experiment with Dasatinib + Alpelisib (first compound 0.05 µM), 0.457. The relative viability stood at 0.145 with Dasatinib + Alpelisib (first compound 0.1581 µM); 0.142 with Dasatinib + Alpelisib (first compound 0.5 µM); 0.481 in the experiment with Dasatinib + Phenformin (first compound 0.005 µM); 0.339 in the experiment with Dasatinib + Phenformin (first compound 0.01581 µM); 0.255 with Dasatinib + Phenformin (first compound 0.05 µM); 0.181 in the experiment with Dasatinib + Phenformin (first compound 0.1581 µM). The relative viability with Dasatinib + Phenformin (first compound 0.5 µM) came out at 0.179.

For NCI-H596, the relative viability came out at 0.892 in the experiment with ALW-II-49-7 + Crizotinib (first compound 0.08 µM); 0.911 with ALW-II-49-7 + Crizotinib (first compound 0.253 µM); 0.978 with ALW-II-49-7 + Crizotinib (first compound 0.8 µM); 0.997 in the experiment with ALW-II-49-7 + Crizotinib (first compound 2.53 µM); 1.07 with ALW-II-49-7 + Crizotinib (first compound 8 µM); 0.809 with Dasatinib + Luminespib (first compound 0.005 µM). The relative viability worked out at 0.691 with Dasatinib + Luminespib (first compound 0.01581 µM); 0.776 with Dasatinib + Luminespib (first compound 0.05 µM); 0.552 in the experiment with Dasatinib + Luminespib (first compound 0.1581 µM); 0.478 with Dasatinib + Luminespib (first compound 0.5 µM); 0.387 in the experiment with Dasatinib + Alpelisib (first compound 0.005 µM); 0.436 with Dasatinib + Alpelisib (first compound 0.01581 µM). The relative viability with Dasatinib + Alpelisib (first compound 0.05 µM) was determined as 0.378; with Dasatinib + Alpelisib (first compound 0.1581 µM), 0.326; in the experiment with Dasatinib + Alpelisib (first compound 0.5 µM) it was 0.221; in the experiment with Dasatinib + Phenformin (first compound 0.005 µM) it was 0.728; with Dasatinib + Phenformin (first compound 0.01581 µM), 0.52; in the experiment with Dasatinib + Phenformin (first compound 0.05 µM) it was 0.712. The figures for the relative viability with Dasatinib + Phenformin (first compound 0.1581 µM) and with Dasatinib + Phenformin (first compound 0.5 µM) were 0.44 and 0.402, respectively.

In the case of NCI-H647, the relative viability in the experiment with ALW-II-49-7 + Crizotinib (first compound 0.08 µM) worked out at 1.07; with ALW-II-49-7 + Crizotinib (first compound 0.253 µM) it was 1.4; with ALW-II-49-7 + Crizotinib (first compound 0.8 µM) it was 1.28; with ALW-II-49-7 + Crizotinib (first compound 2.53 µM) it was 0.776; with ALW-II-49-7 + Crizotinib (first compound 8 µM) it was 0.67; with Dasatinib + Luminespib (first compound 0.005 µM) it was 0.141. Further, the relative viability in the experiment with Dasatinib + Luminespib (first compound 0.01581 µM) stood at 0.0794; with Dasatinib + Luminespib (first compound 0.05 µM) it was 0.137; with Dasatinib + Luminespib (first compound 0.1581 µM), 0.117; in the experiment with Dasatinib + Luminespib (first compound 0.5 µM), 0.0952; with Dasatinib + Alpelisib (first compound 0.005 µM), 0.779; in the experiment with Dasatinib + Alpelisib (first compound 0.01581 µM), 0.419. In addition, the relative viability in the experiment with Dasatinib + Alpelisib (first compound 0.05 µM) came out at 0.319; in the experiment with Dasatinib + Alpelisib (first compound 0.1581 µM), 0.166; with Dasatinib + Alpelisib (first compound 0.5 µM), 0.146; with Dasatinib + Phenformin (first compound 0.005 µM) it was 0.465; with Dasatinib + Phenformin (first compound 0.01581 µM), 0.366; with Dasatinib + Phenformin (first compound 0.05 µM), 0.257. For the same cell line, the relative viability in the experiment with Dasatinib + Phenformin (first compound 0.1581 µM) stood at 0.197; with Dasatinib + Phenformin (first compound 0.5 µM), 0.141.

For the cell line NCI-H650, the relative viability in the experiment with ALW-II-49-7 + Crizotinib (first compound 0.08 µM) was determined as 0.679; in the experiment with ALW-II-49-7 + Crizotinib (first compound 0.253 µM), 0.699; with ALW-II-49-7 + Crizotinib (first compound 0.8 µM) it was 0.62; in the experiment with ALW-II-49-7 + Crizotinib (first compound 2.53 µM), 0.43; with ALW-II-49-7 + Crizotinib (first compound 8 µM), 0.516; in the experiment with Dasatinib + Luminespib (first compound 0.005 µM), 0.771. In addition, the relative viability was found to be 0.777 with Dasatinib + Luminespib (first compound 0.01581 µM); 0.852 with Dasatinib + Luminespib (first compound 0.05 µM); 0.401 in the experiment with Dasatinib + Luminespib (first compound 0.1581 µM); 0.213 with Dasatinib + Luminespib (first compound 0.5 µM); 1.16 in the experiment with Dasatinib + Alpelisib (first compound 0.005 µM); 1.05 with Dasatinib + Alpelisib (first compound 0.01581 µM). Besides, the relative viability was determined as 1.04 in the experiment with Dasatinib + Alpelisib (first compound 0.05 µM); 0.726 with Dasatinib + Alpelisib (first compound 0.1581 µM); 0.428 with Dasatinib + Alpelisib (first compound 0.5 µM); 0.496 with Dasatinib + Phenformin (first compound 0.005 µM); 0.438 in the experiment with Dasatinib + Phenformin (first compound 0.01581 µM); 0.433 with Dasatinib + Phenformin (first compound 0.05 µM). Moreover, the relative viability with Dasatinib + Phenformin (first compound 0.1581 µM) came out at 0.375; in the experiment with Dasatinib + Phenformin (first compound 0.5 µM) it was 0.317.
